PubChem BioAssay (NCI)
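A five-concentration, 48-hour dose response in 96-well plates underlies each endpoint, interpolated linearly between surrounding concentrations. The concentration for 50% growth inhibition is given as GI50. TGI is the concentration that stops growth completely.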

Legend:
Assay in all cases: NCI tumour cell line growth inhibition, 48 h
SK-MEL-5 melanoma = tested on: SK-MEL-5 melanoma
HT29 colon = tested on: HT29 colon
SNB-19 CNS = tested on: SNB-19 CNS
NCI-H460 lung = tested on: NCI-H460 lung
KM12 colon = tested on: KM12 colon
HCC-2998 colon = tested on: HCC-2998 colon
M14 melanoma = tested on: M14 melanoma
HOP-62 NSCLC = tested on: HOP-62 NSCLC
IGROV1 ovarian = tested on: IGROV1 ovarian
SK-MEL-28 melanoma = tested on: SK-MEL-28 melanoma

Compound	GI50 (SK-MEL-5 melanoma)	TGI (SK-MEL-5 melanoma)	GI50 (HT29 colon)	TGI (HT29 colon)	GI50 (SNB-19 CNS)	TGI (SNB-19 CNS)	GI50 (NCI-H460 lung)	TGI (NCI-H460 lung)	GI50 (KM12 colon)	TGI (KM12 colon)	GI50 (HCC-2998 colon)	TGI (HCC-2998 colon)	GI50 (M14 melanoma)	TGI (M14 melanoma)	GI50 (HOP-62 NSCLC)	TGI (HOP-62 NSCLC)	GI50 (IGROV1 ovarian)	TGI (IGROV1 ovarian)	GI50 (SK-MEL-28 melanoma)	TGI (SK-MEL-28 melanoma)
c1csc(-c2[nH]nc3c2CCc2ccccc2-3)c1	13 µM	26 µM	15.6 µM	42.6 µM	13.3 µM	> 65.9 µM	9.12 µM	34.3 µM	0.406 µM	14.9 µM	1.15 µM	28.6 µM	17.8 µM	38 µM	12.8 µM	28.7 µM	19.4 µM	73 µM	19.2 µM	39.7 µM
O=C(Nc1cccc(C(F)(F)F)c1)Nc1cc(S(=O)(=O)NC2CC2)ccc1-c1ccsc1	2.31 µM	5.65 µM	4.25 µM	16.1 µM	2.99 µM	13 µM	3.4 µM	11.6 µM	4.46 µM	16.1 µM	6.15 µM	19.8 µM	4.32 µM	18.4 µM	5.11 µM	18.5 µM	7.18 µM	25.4 µM	5.1 µM	18.5 µM
CC(C)c1nc(Cl)c(Cl)c(Cl)n1	–	30.9 µM	–	17.9 µM	–	36.2 µM	–	48.4 µM	–	23.3 µM	–	15.7 µM	–	19 µM	–	25.9 µM	–	19.5 µM	–	40.5 µM
O=C(COC(=O)[C@H](C[Se][Se]C[C@H](NC(=O)c1ccc(Br)cc1F)C(=O)OCC(=O)c1ccc(F)cc1)NC(=O)c1ccc(Br)cc1F)c1ccc(F)cc1	1.23 µM	4.27 µM	0.916 µM	> 58.7 µM	0.444 µM	1.63 µM	0.345 µM	1.27 µM	0.301 µM	0.793 µM	1.39 µM	3.56 µM	1.08 µM	2.9 µM	0.654 µM	2.24 µM	1.35 µM	3 µM	0.631 µM	1.63 µM
CC(C)C12CCC3(CCC4C(C)(C(=O)O)CCCC4(C)C3C1)C(CN)C2 (configuration not stated)	–	86.2 µM	–	47.2 µM	–	> 100 µM	–	52.3 µM	–	> 100 µM	–	36.2 µM	–	> 100 µM	–	> 100 µM	–	> 100 µM	–	> 100 µM
COc1ccc(C[C@H](N)C(=O)N[C@@H]2[C@@H](CO)OC(n3cnc4c(N(C)C)ncnc43)[C@@H]2O)cc1 (some centres not stated)	0.287 µM	0.914 µM	–	1.38 µM	0.339 µM	1.71 µM	–	0.889 µM	0.363 µM	1.08 µM	0.651 µM	1.31 µM	0.647 µM	1.4 µM	–	1.1 µM	0.539 µM	1.73 µM	0.479 µM	1.13 µM
CCCCCCCCCCCCCCCC(=O)NCC(OCC)OCC	–	> 100 µM	–	> 100 µM	–	> 100 µM	–	> 100 µM	–	> 100 µM	–	> 100 µM	–	> 100 µM	–	> 100 µM	–	> 100 µM	–	> 100 µM
CN1C/C(=C\c2ccco2)c2nc(N)nc(-c3ccco3)c2C1	–	> 100 µM	–	> 100 µM	–	> 100 µM	–	> 100 µM	–	> 100 µM	–	> 100 µM	–	> 100 µM	–	> 100 µM	–	> 100 µM	–	> 100 µM
CC1=C2[C@@H](c3ccccc3)C3C=CC2(C=C3C(F)(F)F)N(C(=O)NC2CCCCC2)C1=O (some centres not stated)	–	> 100 µM	–	> 100 µM	–	> 100 µM	–	> 100 µM	–	> 100 µM	–	> 100 µM	–	> 100 µM	–	> 100 µM	–	> 100 µM	–	> 100 µM
CC(C)(CCc1nc2ccccc2[nH]1)C(=O)O	–	> 100 µM	–	> 100 µM	–	> 100 µM	–	> 100 µM	–	> 100 µM	–	> 100 µM	–	> 100 µM	–	> 100 µM	–	> 100 µM	–	> 100 µM
O=C1OC(c2ccccc2)=N/C1=C\c1ccc(N(CCCl)CCCl)cc1	–	> 100 µM	–	> 100 µM	–	> 100 µM	–	> 100 µM	–	> 100 µM	–	> 100 µM	–	> 100 µM	–	> 100 µM	–	> 100 µM	–	> 100 µM
CN(C)C(=O)c1cc2cnc(Nc3ccc(N4CCNCC4)cn3)nc2n1C1CCCC1	11.6 µM	24.5 µM	3.28 µM	> 100 µM	14.2 µM	> 100 µM	11.3 µM	43.8 µM	2.85 µM	32.9 µM	27.8 µM	> 100 µM	15.7 µM	39.1 µM	2.09 µM	58.5 µM	19.5 µM	> 100 µM	16.1 µM	48.3 µM
CC(=O)OC1CCC2(C)C(=CCC3C4CC(CN5CC5)C(=O)C4(C)CCC32)C1 (configuration not stated)	12.7 µM	25.9 µM	3.39 µM	12.6 µM	14.1 µM	29.5 µM	12.2 µM	29.5 µM	3.11 µM	11 µM	14 µM	30.4 µM	14.2 µM	31.7 µM	18.8 µM	33.6 µM	4.23 µM	15.2 µM	13.5 µM	27.3 µM
O=C(NCc1cccnc1)c1ccc([N+](=O)[O-])o1	2.18 µM	6.38 µM	0.825 µM	2.37 µM	2.89 µM	8.26 µM	1.62 µM	3.73 µM	1.32 µM	5.32 µM	1.83 µM	6.05 µM	1.42 µM	5.12 µM	1.3 µM	4.79 µM	4.52 µM	> 24.5 µM	2.83 µM	7.58 µM
CCn1c(SC)nnc1-c1cc2c([nH]c3ccccc32)c(-c2cccc(O)c2)n1	1.03 µM	5.97 µM	3.41 µM	12.5 µM	4.16 µM	47 µM	1.6 µM	16.6 µM	3 µM	44.7 µM	4.94 µM	62.3 µM	1.48 µM	12.5 µM	2.87 µM	15.8 µM	2.57 µM	52 µM	2.69 µM	21 µM
Cc1c(-c2ccc(N3CCc4cccc(C(=O)Nc5nc6ccccc6s5)c4C3)nc2C(=O)O)cnn1CC12CC3CC(CC(C3)C1)C2	2.79 µM	9.79 µM	7.79 µM	25.3 µM	4.37 µM	19.6 µM	8.22 µM	24.6 µM	4.97 µM	20.6 µM	< 0.0329 µM	1.34 µM	7.7 µM	25.4 µM	10.1 µM	27.8 µM	12.6 µM	31.5 µM	6.27 µM	19.3 µM
COc1ccc(Cl)cc1Nc1nc(C(F)(F)F)ccc1C(=O)N/N=C/c1ccc(Cl)cc1	2.23 µM	23.5 µM	7.4 µM	> 100 µM	6.42 µM	> 100 µM	1.82 µM	> 100 µM	5.16 µM	> 100 µM	2.67 µM	> 100 µM	3.69 µM	> 100 µM	3.51 µM	24 µM	11 µM	79.1 µM	74 µM	> 100 µM
O=C(/C=C/c1ccc(OCC(=O)N2CCN(c3ccccc3)CC2)cc1)c1ccccc1	–	> 53 µM	–	> 100 µM	–	> 82.9 µM	–	> 87 µM	–	> 75 µM	–	> 72.4 µM	–	> 100 µM	–	> 100 µM	–	> 100 µM	–	54.5 µM
COC(=O)/C(=C/c1ccc(OC)cc1)c1cc(OC)c(OC)c(OC)c1	–	> 39.3 µM	–	> 74.9 µM	–	98 µM	–	45.9 µM	–	71 µM	–	> 59 µM	–	> 96.3 µM	–	> 51.2 µM	–	> 100 µM	–	> 100 µM
CN1CCN(Cc2ccc(NC(=O)c3cncc(C#Cc4cnc5cccnn45)c3)cc2C(F)(F)F)CC1	1.06 µM	2.42 µM	0.963 µM	5.1 µM	1.8 µM	5.62 µM	1.27 µM	3.44 µM	0.00863 µM	2.41 µM	1.31 µM	4.24 µM	1.02 µM	3.34 µM	1.36 µM	5.08 µM	1.3 µM	5.59 µM	1.3 µM	4.63 µM
Nc1ccc(N)c2c1C(=O)c1cccc([N+](=O)[O-])c1C2=O	1.43 µM	3.76 µM	5.6 µM	> 100 µM	2.4 µM	> 30.4 µM	0.206 µM	1.27 µM	4.15 µM	> 100 µM	0.373 µM	1.49 µM	3.37 µM	> 100 µM	1.62 µM	7.88 µM	3.92 µM	> 100 µM	11.5 µM	> 100 µM
O=[N+]([O-])c1cccc(C2=NOC3CCCC23)c1 (configuration not stated)	–	> 100 µM	–	> 100 µM	–	> 100 µM	–	> 100 µM	–	> 100 µM	–	> 100 µM	–	> 100 µM	–	> 100 µM	–	> 100 µM	–	> 100 µM
C/C(=N\NC(=O)c1ccncc1)c1ccccc1O	3.6 µM	32.2 µM	1.6 µM	> 100 µM	8.23 µM	> 100 µM	0.683 µM	> 100 µM	2.95 µM	> 100 µM	2.37 µM	68.7 µM	4.95 µM	89.1 µM	3.82 µM	> 100 µM	1.8 µM	> 100 µM	20.9 µM	> 100 µM
CCNc1nc(-c2ccc(Cl)c(OC)c2)c(-c2ccnc(NCCNS(=O)(=O)c3ccc(Cl)cc3)n2)s1	1.56 µM	3.23 µM	2.92 µM	20.1 µM	4.59 µM	> 100 µM	3.2 µM	> 100 µM	3.52 µM	> 100 µM	4.97 µM	> 100 µM	3.82 µM	> 100 µM	3.2 µM	7.69 µM	4.68 µM	> 100 µM	3.33 µM	> 100 µM
COc1cccc(OC)c1/C=N\N1C(=O)c2ccccc2C1=O	–	> 100 µM	–	> 100 µM	–	> 100 µM	–	> 100 µM	–	> 100 µM	–	91.9 µM	–	58.2 µM	–	> 100 µM	–	> 100 µM	–	> 100 µM
Cc1cc2c(SCc3ccccc3Cl)nc(N)nc2nc1C	–	> 100 µM	–	> 100 µM	–	> 100 µM	–	> 100 µM	–	> 100 µM	–	> 100 µM	–	> 100 µM	–	> 100 µM	–	> 100 µM	–	> 100 µM
COc1cc(/C=C/C(=O)c2c(-c3ccc(Cl)cc3)nc3sc(C)nn23)cc(OC)c1OC	3.1 µM	15.6 µM	77.7 µM	> 100 µM	> 100 µM	> 100 µM	> 100 µM	> 100 µM	21.6 µM	> 100 µM	> 100 µM	> 100 µM	55.2 µM	> 100 µM	10.4 µM	> 100 µM	70.1 µM	> 100 µM	> 100 µM	> 100 µM
NC1=NN(c2ccccc2)C(=O)C1/C(=N\NC(=O)c1cc2ccccc2cc1O)C(=O)Nc1ccc(Cl)cc1 (configuration not stated)	–	56.5 µM	–	> 100 µM	–	> 100 µM	–	> 100 µM	–	> 100 µM	–	> 100 µM	–	74.7 µM	–	> 100 µM	–	80.9 µM	–	> 100 µM
COc1ccc(S(=O)(=O)NCCCNc2nccc(-c3c(-c4ccc(F)cc4)nc4sccn34)n2)cc1	5.49 µM	74.9 µM	2.84 µM	20.2 µM	40.2 µM	> 100 µM	4.33 µM	> 100 µM	5.07 µM	> 100 µM	11.8 µM	56.7 µM	8.98 µM	> 100 µM	18 µM	> 100 µM	5.59 µM	> 100 µM	9.5 µM	> 100 µM
CC(C)=NO.CC(C)=NO.CC(C)=NO.CC(C)=NO.[Ti]	> 100 µM	> 100 µM	> 100 µM	> 100 µM	> 100 µM	> 100 µM	> 100 µM	> 100 µM	> 100 µM	> 100 µM	> 100 µM	> 100 µM	> 100 µM	> 100 µM	> 100 µM	> 100 µM	> 100 µM	> 100 µM	> 100 µM	> 100 µM
